In patent publication US12168019B1, “8-hydroxy quinoline derivatives for enhancing telomerase reverse transcriptase (TERT) expression” (Sierra Sciences, Inc., priority 2010, dated 2024):

Tested on: human TERT expression (hTERT mRNA transcripts)
Test: Quantitative real-time RT-PCR of hTERT mRNA transcripts in compound-treated cells; also: test concentration or dose not given here
Format: cell-based
From the text: Telomerase is a ribonucleoprotein complex composed of the catalytic protein subunit (human telomerase reverse transcriptase or hTERT) and the RNA template. hTERT expression level can be measured by PCR.
Quantitative Reverse Transcription PCR can be run according to procedures outlined in Yajima et al. (Yajima, T. et al. Quantitative Reverse Transcription-PCR Assay of the RNA Component of Human Telomerase Using the TaqMan Fluorogenic Detection System Clinical Chemistry, 44:12, 2441-2445, 1998).
The principle of real-time PCR was first described by Heid et al. (Heid C. A., Stevens J., Livak K. J., Williams P. M. Real time quantitative PCR. Genome Res., 6: 986-994, 1996). Briefly, amplification of the target sequence is monitored per PCR cycle by detecting the fluorescence signal emitted by an internal probe that is degraded by the 5′ nuclease activity of the Taq polymerase. The emission signal accumulates in each sample, and the Ct required to reach a given fluorescence threshold is determined (Ct stands for Cycle Threshold and is a measure of the number of PCR cycles that are required to amplify a target—thus, a lower Ct score means that there is more abundant hTERT mRNA). Thus, the C1 value of a sample inversely correlates to the quantity of the starting cDNA which correlates to the number of mRNA transcripts. Using the cDNA of known quantity, a standard curve can be generated and used to determine the starting amount of mRNA transcripts based on the […] of each sample.
Quantitative real-time PCR can be done on cDNA from test compound-treated and nontreated cells by use of a ABI Prism 7900 Sequence Detection System (PE Applied Biosystems, Foster City, CA) following the Assays-on-Demand protocol (PE Applied Biosystems, Foster City, CA). Quantitative data can be analyzed using the Sequence Detection System software version 2.1 (PE Applied Biosystems).
The following compounds were tested in assays designed to identify compounds that enhance human TERT expression. The compounds turned on human TERT expression in these assays.

SMILES	Average Number of hTERT Transcripts
CCC(=O)NC(c1ccc(N(C)C)cc1)c1ccc2cccnc2c1O (stereo not drawn) [Compound 1001]	12.47
CN1CCN(Cc2cc(COCc3ccccc3)c3cccnc3c2O)CC1 [Compound 1003]	10.05
Oc1c(C(Nc2ccccn2)c2ccc(OC3CCCC3)cc2)ccc2cccnc12 (stereo not drawn) [Compound 1004]	12.11
Oc1c(C(Nc2ccccn2)c2cccc(Cl)c2Cl)ccc2cccnc12 (stereo not drawn) [Compound 1006]	25.82
COC(=O)c1ccc(C(Nc2cc(C)ccn2)c2ccc3ccc(C)nc3c2O)cc1 (stereo not drawn) [Compound 1008]	43.18
Oc1c(C(Nc2ccccn2)c2c(Cl)cccc2Cl)ccc2cccnc12 (stereo not drawn) [Compound 1009]	50.29
COc1ccc(C(=O)NC(c2ccco2)c2cc(Cl)c3cccnc3c2O)cc1 (stereo not drawn) [Compound 1012]	12.01
COc1cccc(C(=O)NC(c2ccc(OC)c(OC)c2)c2cc(Cl)c3cccnc3c2O)c1 (stereo not drawn) [Compound 1013]	40.42
COc1ccc(C(=O)NC(c2ccc(Cl)cc2)c2cc(Cl)c3cccnc3c2O)cc1 (stereo not drawn) [Compound 1014]	11.55
O=C(COc1ccccc1)NC(/C=C/c1ccccc1)c1cc(Cl)c2cccnc2c1O (stereo not drawn) [Compound 1015]	63.93
COc1ccc(C(=O)NC(/C=C/c2ccccc2)c2cc(Cl)c3cccnc3c2O)cc1 (stereo not drawn) [Compound 1016]	10.9
COc1cccc(C(=O)NC(/C=C/c2ccccc2)c2cc(Cl)c3cccnc3c2O)c1 (stereo not drawn) [Compound 1017]	96.98
Oc1c(Br)cc(Br)c2cccnc12 [Compound 1019]	271.75
Oc1c(I)cc(Cl)c2cccnc12 [Compound 1021]	60.68
CC(=O)NC(c1ccc(Br)cc1)c1ccc2cccnc2c1O (stereo not drawn) [Compound 1022]	60.01
COc1ccc(C(NC(C)=O)c2ccc3cccnc3c2O)cc1OC (stereo not drawn) [Compound 1023]	160.65
CC(=O)NC(c1ccc(C)cc1)c1ccc2cccnc2c1O (stereo not drawn) [Compound 1024]	165.68
CCCCC(=O)NC(c1ccccc1OC)c1cc([N+](=O)[O-])c2cccnc2c1O (stereo not drawn) [Compound 1027]	19.72
CC(=O)NC(c1ccc(C(C)C)cc1)c1ccc2cccnc2c1O (stereo not drawn) [Compound 1030]	26.47
CCCCC(=O)NC(c1ccccc1Cl)c1cc([N+](=O)[O-])c2cccnc2c1O (stereo not drawn) [Compound 1031]	44.8
CCC(=O)NC(c1ccc(OC)c(OC)c1)c1cc(Cl)c2cccnc2c1O (stereo not drawn) [Compound 1032]	39.96
CCOc1cc(C(NC(C)=O)c2cc([N+](=O)[O-])c3cccnc3c2O)ccc1O (stereo not drawn) [Compound 1033]	28.91
CC(=O)NC(c1ccco1)c1cc([N+](=O)[O-])c2cccnc2c1O (stereo not drawn) [Compound 1034]	44.71
CCC(=O)NC(/C=C/c1ccccc1)c1cc([N+](=O)[O-])c2cccnc2c1O (stereo not drawn) [Compound 1035]	66.72
CCCC(=O)NC(c1ccc(O)c(OCC)c1)c1cc([N+](=O)[O-])c2cccnc2c1O (stereo not drawn) [Compound 1036]	65
CC(=O)NC(c1ccc(Cl)cc1)c1cc([N+](=O)[O-])c2cccnc2c1O (stereo not drawn) [Compound 1037]	55.41
CCC(=O)NC(c1ccco1)c1cc(Cl)c2cccnc2c1O (stereo not drawn) [Compound 1039]	30.9

SMILES	Average Number of hTERT Transcripts
CCCCC(=O)NC(c1ccc(OC)cc1)c1cc([N+](=O)[O-])c2cccnc2c1O (stereo not drawn) [Compound 1040]	25.16
CCC(=O)NC(c1ccccc1Cl)c1cc(Cl)c2cccnc2c1O (stereo not drawn) [Compound 1041]	20.78
CC(C)C(=O)NC(c1ccc(Cl)cc1Cl)c1ccc2cccnc2c1O (stereo not drawn) [Compound 1042]	10.53
CCC(=O)NC(c1ccccc1OC)c1cc(Cl)c2cccnc2c1O (stereo not drawn) [Compound 1043]	15.13
CCCC(=O)NC(c1ccc(Cl)cc1)c1cc([N+](=O)[O-])c2cccnc2c1O (stereo not drawn) [Compound 1044]	92.93
Cc1ccc(C(NC(=O)C2CCCCC2)c2ccc3cccnc3c2O)cc1 (stereo not drawn) [Compound 1047]	43.89
CCCC(=O)NC(c1cccs1)c1cc([N+](=O)[O-])c2cccnc2c1O (stereo not drawn) [Compound 1048]	58.04
CCC(=O)NC(c1ccc(C)cc1)c1cc([N+](=O)[O-])c2cccnc2c1O (stereo not drawn) [Compound 1049]	49.12
CC(=O)NC(c1ccccc1)c1cc([N+](=O)[O-])c2cccnc2c1O (stereo not drawn) [Compound 1050]	47.68
CCC(=O)NC(c1ccccc1OC)c1cc([N+](=O)[O-])c2cccnc2c1O (stereo not drawn) [Compound 1051]	45.24
CCCCC(=O)NC(c1ccc(OC)c(OC)c1)c1cc([N+](=O)[O-])c2cccnc2c1O (stereo not drawn) [Compound 1053]	47.54
CCCCC(=O)NC(c1ccc(Cl)cc1)c1cc([N+](=O)[O-])c2cccnc2c1O (stereo not drawn) [Compound 1054]	8.59
CCCCC(=O)NC(c1ccco1)c1cc([N+](=O)[O-])c2cccnc2c1O (stereo not drawn) [Compound 1055]	28.89
CCCC(=O)NC(c1ccc(C(C)C)cc1)c1cc([N+](=O)[O-])c2cccnc2c1O (stereo not drawn) [Compound 1056]	62.15
CC(=O)NC(c1ccc(C(C)C)cc1)c1cc(Cl)c2cccnc2c1O (stereo not drawn) [Compound 1057]	12.42
CC(=O)NC(c1cccs1)c1ccc2cccnc2c1O (stereo not drawn) [Compound 1058]	47.99
CCN(CC)c1ccc(C(NC(=O)C(C)C)c2ccc3cccnc3c2O)cc1 (stereo not drawn) [Compound 1060]	65.91
CCCCC(=O)NC(c1ccc(OC)cc1)c1cc(Cl)c2cccnc2c1O (stereo not drawn) [Compound 1061]	128.91
CC(C)C(=O)NC(c1ccc(C(C)C)cc1)c1cc(Cl)c2cccnc2c1O (stereo not drawn) [Compound 1062]	47.98
CCCCC(=O)NC(c1cccs1)c1cc([N+](=O)[O-])c2cccnc2c1O (stereo not drawn) [Compound 1063]	205.2
CC(C)C(=O)NC(c1ccc2c(c1)OCO2)c1cc([N+](=O)[O-])c2cccnc2c1O (stereo not drawn) [Compound 1064]	52.74
O=C(CCc1ccccc1)NC(c1ccc2c(c1)OCO2)c1ccc2cccnc2c1O (stereo not drawn) [Compound 1065]	24.47
CCCC(=O)NC(c1ccc(N(C)C)cc1)c1cc(Cl)c2cccnc2c1O (stereo not drawn) [Compound 1066]	43.68
CCCCC(=O)NC(c1cccs1)c1cc(Cl)c2cccnc2c1O (stereo not drawn) [Compound 1067]	16.2
CCCCC(=O)NC(/C=C/c1ccccc1)c1cc([N+](=O)[O-])c2cccnc2c1O (stereo not drawn) [Compound 1069]	101.8
CCCC(=O)NC(c1ccc(N(CC)CC)cc1)c1cc(Cl)c2cccnc2c1O (stereo not drawn) [Compound 1070]	68.65
CC(C)C(=O)NC(c1ccc(C(C)C)cc1)c1cc([N+](=O)[O-])c2cccnc2c1O (stereo not drawn) [Compound 1071]	70.74
